Tests used:
[1] = tested on: LNCaP; test: cells; conditions: Homo sapiens, 72 h
Description: Cytotoxicity against human LNCAP cells after 72 hrs by MTT assay

[2] = tested on: MDA-MB-231; test: cells; conditions: Homo sapiens, MDA-MB-231, 72 h
Description: Cytotoxicity against human MDA-MB-231 cells after 72 hrs by MTT assay

[3] = tested on: MDA-MB-231; test: Antitumor activity against human MDA-MB-231 cells xenografted in BALB/c mouse assessed as tumor volume at 10 mg/kg, iv dosed every 3 days for 15 days relative to untreated control; type: functional
[4] = tested on: Mus musculus; test: Hepatotoxicity in Kunming mouse assessed as serum AST level at 10 mg/kg, iv (reference value: 197.2 +/- 11.2 U/L); type: toxicity, organism-based; set-up: dose 10 mg/kg, route intravenous; conditions: in vivo
[5] = biological target: Heat shock protein HSP 90-alpha (Homo sapiens, UniProt P07900); test: Displacement of GA-FITC from human recombinant HSP90alpha ATP-binding site by fluorescence polarization assay
[6] = tested on: Mus musculus; test: Hepatotoxicity in Kunming mouse assessed as serum ALT level at 10 mg/kg, iv (reference value: 60.7 +/- 6.9 U/L); type: toxicity, organism-based; set-up: dose 10 mg/kg, route intravenous; conditions: in vivo
[7] = tested on: MDA-MB-231; test: Antitumor activity against human MDA-MB-231 cells xenografted in BALB/c mouse assessed as reduction in tumor weight at 10 mg/kg, iv dosed every 3 days for 15 days; type: functional; conditions: read-out: GI

Compound | IC50 [1] [µM] | IC50 [2] [µM] | further results
CO[C@H]1/C=C\C=C(/C)C(=O)NC2=CC(=O)C(NCc3ccccc3Cl)=C(C[C@@H](C)C[C@H](OC)[C@H](O)[C@@H](C)/C=C(\C)[C@@H]1OC(N)=O)C2=O | 0.41 | 0.65 | –
CO[C@H]1/C=C\C=C(/C)C(=O)NC2=CC(=O)C(NCc3cccc(Cl)c3)=C(C[C@@H](C)C[C@H](OC)[C@H](O)[C@@H](C)/C=C(\C)[C@@H]1OC(N)=O)C2=O | 8.5 | 0.38 | –
CO[C@H]1/C=C\C=C(/C)C(=O)NC2=CC(=O)C(NCc3ccc(Cl)cc3)=C(C[C@@H](C)C[C@H](OC)[C@H](O)[C@@H](C)/C=C(\C)[C@@H]1OC(N)=O)C2=O | 0.77 | 0.46 | –
CO[C@H]1/C=C\C=C(/C)C(=O)NC2=CC(=O)C(NCc3ccc(F)cc3)=C(C[C@@H](C)C[C@H](OC)[C@H](O)[C@@H](C)/C=C(\C)[C@@H]1OC(N)=O)C2=O | 2.28 | 0.63 | –
CO[C@H]1/C=C\C=C(/C)C(=O)NC2=CC(=O)C(NCc3ccc(Br)cc3)=C(C[C@@H](C)C[C@H](OC)[C@H](O)[C@@H](C)/C=C(\C)[C@@H]1OC(N)=O)C2=O | > 10 | 0.24 | –
CO[C@H]1/C=C\C=C(/C)C(=O)NC2=CC(=O)C(NCc3ccc(I)cc3)=C(C[C@@H](C)C[C@H](OC)[C@H](O)[C@@H](C)/C=C(\C)[C@@H]1OC(N)=O)C2=O | 1.36 | 0.36 | –
CO[C@H]1/C=C\C=C(/C)C(=O)NC2=CC(=O)C(NCc3ccc(F)c(F)c3)=C(C[C@@H](C)C[C@H](OC)[C@H](O)[C@@H](C)/C=C(\C)[C@@H]1OC(N)=O)C2=O | > 10 | 0.63 | –
CO[C@H]1/C=C\C=C(/C)C(=O)NC2=CC(=O)C(NCc3cc(F)cc(F)c3)=C(C[C@@H](C)C[C@H](OC)[C@H](O)[C@@H](C)/C=C(\C)[C@@H]1OC(N)=O)C2=O | 1.98 | 0.35 | –
COc1ccccc1CNC1=C2C[C@@H](C)C[C@H](OC)[C@H](O)[C@@H](C)/C=C(\C)[C@H](OC(N)=O)[C@@H](OC)/C=C\C=C(/C)C(=O)NC(=CC1=O)C2=O | > 10 | 0.46 | –
COc1cccc(CNC2=C3C[C@@H](C)C[C@H](OC)[C@H](O)[C@@H](C)/C=C(\C)[C@H](OC(N)=O)[C@@H](OC)/C=C\C=C(/C)C(=O)NC(=CC2=O)C3=O)c1 | 2.67 | 0.88 | –
COc1ccc(CNC2=C3C[C@@H](C)C[C@H](OC)[C@H](O)[C@@H](C)/C=C(\C)[C@H](OC(N)=O)[C@@H](OC)/C=C\C=C(/C)C(=O)NC(=CC2=O)C3=O)cc1 | 7.81 | 0.18 | –
COc1ccc(CNC2=C3C[C@@H](C)C[C@H](OC)[C@H](O)[C@@H](C)/C=C(\C)[C@H](OC(N)=O)[C@@H](OC)/C=C\C=C(/C)C(=O)NC(=CC2=O)C3=O)c(OC)c1 | 3.11 | 0.33 | –
COc1ccc(CNC2=C3C[C@@H](C)C[C@H](OC)[C@H](O)[C@@H](C)/C=C(\C)[C@H](OC(N)=O)[C@@H](OC)/C=C\C=C(/C)C(=O)NC(=CC2=O)C3=O)cc1OC | > 10 | 0.36 | –
COc1cc(CNC2=C3C[C@@H](C)C[C@H](OC)[C@H](O)[C@@H](C)/C=C(\C)[C@H](OC(N)=O)[C@@H](OC)/C=C\C=C(/C)C(=O)NC(=CC2=O)C3=O)cc(OC)c1OC | 2.45 | 0.64 | –
COc1cc(CNC2=C3C[C@@H](C)C[C@H](OC)[C@H](O)[C@@H](C)/C=C(\C)[C@H](OC(N)=O)[C@@H](OC)/C=C\C=C(/C)C(=O)NC(=CC2=O)C3=O)ccc1O | 0.14 | 0.16 | –
CO[C@H]1/C=C\C=C(/C)C(=O)NC2=CC(=O)C(NCc3ccc(O)cc3)=C(C[C@@H](C)C[C@H](OC)[C@H](O)[C@@H](C)/C=C(\C)[C@@H]1OC(N)=O)C2=O | 8.48 | 0.17 | –
CO[C@H]1/C=C\C=C(/C)C(=O)NC2=CC(=O)C(NCc3ccccc3C)=C(C[C@@H](C)C[C@H](OC)[C@H](O)[C@@H](C)/C=C(\C)[C@@H]1OC(N)=O)C2=O | 5.7 | 1.67 | –

Compound | IC50 [1] [µM] | IC50 [2] [µM] | further results
CO[C@H]1/C=C\C=C(/C)C(=O)NC2=CC(=O)C(NCc3cccc(C)c3)=C(C[C@@H](C)C[C@H](OC)[C@H](O)[C@@H](C)/C=C(\C)[C@@H]1OC(N)=O)C2=O | 5.23 | 0.8 | –
CO[C@H]1/C=C\C=C(/C)C(=O)NC2=CC(=O)C(NCc3ccc(C)cc3)=C(C[C@@H](C)C[C@H](OC)[C@H](O)[C@@H](C)/C=C(\C)[C@@H]1OC(N)=O)C2=O | > 10 | 0.49 | –
CO[C@H]1/C=C\C=C(/C)C(=O)NC2=CC(=O)C(NCc3cccc(N)c3)=C(C[C@@H](C)C[C@H](OC)[C@H](O)[C@@H](C)/C=C(\C)[C@@H]1OC(N)=O)C2=O | 0.18 | 0.56 | –
CO[C@H]1/C=C\C=C(/C)C(=O)NC2=CC(=O)C(NCc3ccc(N)cc3)=C(C[C@@H](C)C[C@H](OC)[C@H](O)[C@@H](C)/C=C(\C)[C@@H]1OC(N)=O)C2=O | 0.05 | 0.17 | T/C [3]: 55%; Activity [4]: 215.8 U/L; IC50 [5]: 0.89 µM; Activity [6]: 74.9 U/L; inhibition in vivo at 10 mg/kg [7]: 46%
CO[C@H]1/C=C\C=C(/C)C(=O)NC2=CC(=O)C(NCc3cccc(C#N)c3)=C(C[C@@H](C)C[C@H](OC)[C@H](O)[C@@H](C)/C=C(\C)[C@@H]1OC(N)=O)C2=O | 1.8 | 0.45 | –
CO[C@H]1/C=C\C=C(/C)C(=O)NC2=CC(=O)C(NCc3ccc(C#N)cc3)=C(C[C@@H](C)C[C@H](OC)[C@H](O)[C@@H](C)/C=C(\C)[C@@H]1OC(N)=O)C2=O | 0.48 | 0.25 | –
CO[C@H]1/C=C\C=C(/C)C(=O)NC2=CC(=O)C(NCc3ccc(S(C)(=O)=O)cc3)=C(C[C@@H](C)C[C@H](OC)[C@H](O)[C@@H](C)/C=C(\C)[C@@H]1OC(N)=O)C2=O | 0.85 | 0.35 | –
CO[C@H]1/C=C\C=C(/C)C(=O)NC2=CC(=O)C(NCc3ccc(S(N)(=O)=O)cc3)=C(C[C@@H](C)C[C@H](OC)[C@H](O)[C@@H](C)/C=C(\C)[C@@H]1OC(N)=O)C2=O | 0.96 | 1.06 | –
COC(=O)c1ccc(CNC2=C3C[C@@H](C)C[C@H](OC)[C@H](O)[C@@H](C)/C=C(\C)[C@H](OC(N)=O)[C@@H](OC)/C=C\C=C(/C)C(=O)NC(=CC2=O)C3=O)cc1 | 1.03 | 0.13 | –
CCOC(=O)c1ccc(CNC2=C3C[C@@H](C)C[C@H](OC)[C@H](O)[C@@H](C)/C=C(\C)[C@H](OC(N)=O)[C@@H](OC)/C=C\C=C(/C)C(=O)NC(=CC2=O)C3=O)cc1 | 1.34 | 0.13 | –
CO[C@H]1/C=C\C=C(/C)C(=O)NC2=CC(=O)C(NCc3ccc(OC(F)(F)F)cc3)=C(C[C@@H](C)C[C@H](OC)[C@H](O)[C@@H](C)/C=C(\C)[C@@H]1OC(N)=O)C2=O | 0.57 | 0.18 | –
CO[C@H]1/C=C\C=C(/C)C(=O)NC2=CC(=O)C(NCc3cccc([N+](=O)[O-])c3)=C(C[C@@H](C)C[C@H](OC)[C@H](O)[C@@H](C)/C=C(\C)[C@@H]1OC(N)=O)C2=O | 0.34 | 0.69 | –
CO[C@H]1/C=C\C=C(/C)C(=O)NC2=CC(=O)C(NCc3ccsc3)=C(C[C@@H](C)C[C@H](OC)[C@H](O)[C@@H](C)/C=C(\C)[C@@H]1OC(N)=O)C2=O | 0.68 | 0.4 | –
CO[C@H]1/C=C\C=C(/C)C(=O)NC2=CC(=O)C(NCc3cncn3C)=C(C[C@@H](C)C[C@H](OC)[C@H](O)[C@@H](C)/C=C(\C)[C@@H]1OC(N)=O)C2=O | 0.44 | 0.41 | –
CO[C@H]1/C=C\C=C(/C)C(=O)NC2=CC(=O)C(NCc3ccc(Cl)nc3)=C(C[C@@H](C)C[C@H](OC)[C@H](O)[C@@H](C)/C=C(\C)[C@@H]1OC(N)=O)C2=O | 0.51 | 0.08 | T/C [3]: 40%; Activity [4]: 173.6 U/L; IC50 [5]: 1.04 µM; Activity [6]: 79.4 U/L; inhibition in vivo at 10 mg/kg [7]: 50%
COC1=C2C[C@@H](C)C[C@H](OC)[C@H](O)[C@@H](C)/C=C(\C)[C@H](OC(N)=O)[C@@H](OC)/C=C\C=C(/C)C(=O)NC(=CC1=O)C2=O [GELDANAMYCIN] | – | – | Activity [4]: 317.2 U/L; Activity [6]: 273 U/L
C=CCNC1=C2C[C@@H](C)C[C@H](OC)[C@H](O)[C@@H](C)/C=C(\C)[C@H](OC(N)=O)[C@@H](OC)/C=C\C=C(/C)C(=O)NC(=CC1=O)C2=O [TANESPIMYCIN] | 0.16 | – | T/C [3]: 35%; Activity [4]: 237.4 U/L; Activity [6]: 66.6 U/L; inhibition in vivo at 10 mg/kg [7]: 57%

From ChEMBL document CHEMBL3352235, “Design, synthesis and biological evaluation of 17-arylmethylamine-17-demethoxygeldanamycin derivatives as potent Hsp90 inhibitors” (Eur J Med Chem, 2014)
